Test results as given in US7670613B2, “Androgen modulators” (Pfizer Inc., priority 2004, dated 2010).
Substitutions are numbered along the chain they refer to. Like-named read-outs stand apart in the source and are kept apart here.

How the values were obtained:
[1] = after 7 years of treatment; cited from earlier work
hAR = target: T1, hAR (Homo sapiens, UniProt P10275); assay: Competitive binding analysis on baculovirus/Sf9 generated hAR extracts with 3H-DHT tracer; settings: 1 nM 3H-DHT, one hour at 4° C., mean of multiple tests
T1 construct: made in house; host or cells: baculovirus/Sf9 insect cells
T1 sequence (P10275 1-920): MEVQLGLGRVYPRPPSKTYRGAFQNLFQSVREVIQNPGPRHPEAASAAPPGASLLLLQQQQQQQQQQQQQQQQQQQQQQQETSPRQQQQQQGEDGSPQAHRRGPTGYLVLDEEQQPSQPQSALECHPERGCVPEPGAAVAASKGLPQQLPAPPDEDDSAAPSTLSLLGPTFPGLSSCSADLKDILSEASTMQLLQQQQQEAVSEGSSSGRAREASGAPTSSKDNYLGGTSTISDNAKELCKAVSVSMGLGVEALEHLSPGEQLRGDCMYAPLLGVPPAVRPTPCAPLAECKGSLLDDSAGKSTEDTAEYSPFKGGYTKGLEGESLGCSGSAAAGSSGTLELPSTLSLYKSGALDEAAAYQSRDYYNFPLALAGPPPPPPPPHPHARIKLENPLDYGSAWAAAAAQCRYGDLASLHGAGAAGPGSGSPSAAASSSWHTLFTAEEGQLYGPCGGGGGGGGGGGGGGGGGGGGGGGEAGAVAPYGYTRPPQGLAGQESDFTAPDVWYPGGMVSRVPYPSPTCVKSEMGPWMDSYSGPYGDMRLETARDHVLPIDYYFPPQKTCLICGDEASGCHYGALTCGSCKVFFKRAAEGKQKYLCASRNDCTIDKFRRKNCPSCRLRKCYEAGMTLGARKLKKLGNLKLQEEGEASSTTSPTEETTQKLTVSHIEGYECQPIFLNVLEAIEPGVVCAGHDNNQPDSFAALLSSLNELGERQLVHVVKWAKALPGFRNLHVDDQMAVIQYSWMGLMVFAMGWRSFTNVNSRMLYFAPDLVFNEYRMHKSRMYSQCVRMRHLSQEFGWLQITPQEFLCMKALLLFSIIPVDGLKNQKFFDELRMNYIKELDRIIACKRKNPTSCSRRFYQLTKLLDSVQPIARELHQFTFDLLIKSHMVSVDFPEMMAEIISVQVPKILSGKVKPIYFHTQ
Method: The description below describes how the assay was carried out.
Competitive binding analysis was performed on baculovirus/Sf9 generated hAR extracts in the presence or absence of different concentrations of test agent and a fixed concentration of ^3H-dihydrotestosterone (^3H-DHT) as tracer. This binding assay method is a modification of a protocol previously described (Liao S., et. al. J. Steroid Biochem. 20:11-17 1984). Briefly, progressively decreasing concentrations of compounds are incubated in the presence of hAR extract (Chang et al. P.N.A.S. Vol. 89, pp. […], 1992), hydroxylapatite, and 1 nM ^3H-DHT for one hour at 4° C. Subsequently, the binding reactions are washed three times to completely remove excess unbound ^3H-DHT. hAR bound ^3H-DHT levels are determined in the presence of compounds (i.e. competitive binding) and compared to levels bound when no competitor is present (i.e. maximum binding). Compound binding affinity to the hAR is expressed as the concentration of compound at which one half of the maximum binding is inhibited.

androgen receptor = target: T2, androgen receptor (Homo sapiens, UniProt P10275, Q868H); assay: AR antagonist cell assay (MDA-MB453-MMTV clone 54-19, luciferase reporter); format: cell-based; settings: 100 pM DHT, 17 hr, mean of multiple tests
T2 construct: a human breast tumor cell line expressing androgen receptor; endogenous in cells; host or cells: MDA-MB453-MMTV clone 54-19 (only the MMTV-luciferase reporter was transfected)
T2 sequence (P10275 1-920 Q868H): T1 sequence (P10275 1-920) with Q868H
Method: The compounds ability to antagonize the effects of androgen on the androgen receptor were determined in a whole cell assay as described immediately below.
Experimental Procedure for AR Antagonist Cell Assay
This cell line is a stable transfected cell line with MDA-MB453 cell background (a human breast tumor cell line expressing androgen receptor). A MMTV minimal promoter containing ARE was first cloned in front of a firefly luciferase reporter gene. Then the cascade was cloned into transfection vector pUV120puro. Electroporation method was used for transfecting MDA-MB-453 cell. Puromycin resistant stable cell line was selected.
Cell Culture Media and Reagents:
Culture medium: DMEM (high glucose, Gibco cat #: 11960-044), 10% FBS, and 1% L-glutamine
Plating medium: DMEM (phenol red free), 10% charcoal treated HyClone serum, 1% L-glutamine
Assay medium: DMEM (phenol red free), 1% charcoal treated HyClone serum, 1% L-glutamine, and 1% penicillin/streptomycin
3× luciferase buffer: 2% beta-mercaptoethanol, 0.6% ATP, 0.0135% luciferine in cell lysis buffer
• 1. Cells are maintained in culture medium, splitting cells when they reach 80-90% confluence • 2. To test compounds, 10,000 cells/well are plated to opaque 96 cell culture plate in 100 ul/well plating medium, culture for overnight at 37° C. in cell culture incubator • 3. Carefully remove plating medium, then add 80 ul/well of pre-warmed assay medium, add 10 ul/well testing compound (final concentration at) 1000 nM, 200 nM, 40 nM, 8 nM, 1.6 nM, and 0.32 nM), incubate at 37° C. for 30 minutes • 4. Add 10 ul/well freshly prepared DHT (final concentration at 100 pM) to each well, incubate at 37° C. for 17 hr (overnight) • 5.
The results are reported as the mean of multiple tests as described below (the numbers of tests are indicated in the footnote). N.D. denotes that the compound was not tested.

[2] = MDA-MB453-MMTV clone 54-19 cells, read-out: AR Cell IC50
[3] = hAR extract, read-out: AR Binding IC50
[4] = AR Cell IC50, MDA-MB453-MMTV clone 54-19 cells

In the case of `NCCCC(O)(P(=O)(O)O)P(=O)(O)O` [alendronate], the “Increase in spinal BMD” value [1] is listed as at most 11%.

`N#Cc1ccc(O[C@@H]2CCCC[C@H]2C#N)cc1C(F)(F)F` (single isomer, unassigned) [Example 73, (trans)-(+)-4-(2-Cyano-cyclohexyloxy)-2-trifluoromethyl-benzonitrile] showed an IC50 (hAR; AR Binding IC50, hAR extract) of 61 nM and an IC50 (androgen receptor; [2]) of 196 nM.

Work on `CO[C@H]1CCC[C@H]1Oc1ccc(C#N)c(Cl)c1` (relative stereo) [Example 34, 2-Chloro-4-(cis-2-methoxy-cyclopentyloxy)-benzonitrile] yielded an IC50 (hAR; AR Binding IC50, hAR extract) of 172 nM and an IC50 (androgen receptor; [2]) of 340 nM.

With `C[C@@H]1CCCC[C@@H]1Oc1ccc(C#N)c(C(F)(F)F)c1` [Example 9, (1S,2R)-4-(2-Methyl-cyclohexyloxy)-2-trifluoromethyl-benzonitrile] the IC50 (hAR; AR Binding IC50, hAR extract) was 22 nM and the IC50 (androgen receptor; [2]) was 751 nM.

In the case of `CC1CCCC(Oc2ccc(C#N)cc2Cl)C1C` (single isomer, unassigned) [Example 64, 3-Chloro-4-(2,3-dimethyl-cyclohexyloxy)-benzonitrile], the IC50 (hAR; [3]) is reported as 119 nM and the IC50 (androgen receptor; [2]) is reported as 217 nM.

`C=C(C)[C@H]1CC[C@H](C)[C@@H](Oc2ccc(C#N)c(Cl)c2)C1` [Example 49, (1S,2S,5S)-2-Chloro-4-(5-isopropenyl-2-methyl-cyclohexyloxy)-benzonitrile] gave an IC50 (hAR; AR Binding IC50, hAR extract) of 10 nM and an IC50 (androgen receptor; [2]) of 49 nM.

Compound `CC1CCCC(C)C1Oc1ccc(C#N)c(C(F)(F)F)c1` (stereo not shown) [Example 12, 4-(2,6-Dimethyl-cyclohexyloxy)-2-trifluoromethyl-benzonitrile] has an IC50 (hAR; AR Binding IC50, hAR extract) of 73 nM and an IC50 (androgen receptor; [2]) of over 1000 nM.

For `CC1CCCC(Oc2ccc(C#N)c(Cl)c2)C1C` (stereo not shown) [Example 52, 2-Chloro-4-(2,3-dimethyl-cyclohexyloxy)-benzonitrile], the IC50 (hAR; AR Binding IC50, hAR extract) was 72 nM and the IC50 (androgen receptor; [2]) was 308 nM.

Compound `N#Cc1ccc(O[C@H]2CCCC[C@@H]2c2ccccc2)cc1C(F)(F)F` [Example 3, 4-(2-(R)-Phenyl-1-(S)-cyclohexyloxy)-2-trifluoromethyl-benzonitrile] has an IC50 (hAR; AR Binding IC50, hAR extract) of 73 nM and an IC50 (androgen receptor; [2]) of over 1000 nM.

For `C[C@H]1CCCC[C@@H]1Oc1ccc(C#N)c(Cl)c1` [Example 41, (1S,2S)-2-Chloro-4-(2-methyl-cyclohexyloxy)-benzonitrile], the IC50 (hAR; AR Binding IC50, hAR extract) was 18 nM and the IC50 (androgen receptor; [2]) was 46 nM.

Compound `N#Cc1ccc(OC2CCCCCC2)c(Cl)c1` [Example 43, 3-Chloro-4-cycloheptyloxy-benzonitrile] has an IC50 (hAR; [3]) of 289 nM and an IC50 (androgen receptor; [2]) of 12 nM.

Work on `N#Cc1ccc(O[C@@H]2CC3CC[C@@H]2C3)cc1Cl` (stereo in doubt) [Example 25, 4-(S)-(Bicyclo[2.2.1]hept-2-yloxy)-2-chloro-benzonitrile] yielded an IC50 (hAR; AR Binding IC50, hAR extract) of 82 nM and an IC50 (androgen receptor; [2]) of under 0.32 nM.

In the case of `N#Cc1ccc(OC2CCCCC2)cc1C(F)(F)F` [Example 11, 4-Cyclohexyloxy-2-trifluoromethyl-benzonitrile], the IC50 (hAR; [3]) is reported as 390 nM and the IC50 (androgen receptor; [4]) is reported as 0.5 nM.

`CCC1CCCCC1Oc1ccc(C#N)c(Cl)c1` (stereo not shown) [Example 27, 2-Chloro-4-(2-ethyl-cyclohexyloxy)-benzonitrile] gave an IC50 (hAR; AR Binding IC50, hAR extract) of 30 nM and an IC50 (androgen receptor; [2]) of 330 nM.

`CO[C@H]1CCCC[C@@H]1Oc1ccc(C#N)c(C(F)(F)F)c1` (relative stereo) [Example 70] showed an IC50 (hAR; [3]) of 158 nM and an IC50 (androgen receptor; [4]) of 10 nM.

Work on `N#Cc1ccc(OC2CCCCC2)cc1Cl` [Example 45, 2-Chloro-4-cyclohexyloxy-benzonitrile] yielded an IC50 (hAR; [3]) of 196 nM and an IC50 (androgen receptor; [2]) of 147 nM.

`CC1CCCC(C)C1Oc1ccc(C#N)c(Cl)c1` (stereo not shown) [Example 53, 2-Chloro-4-(2,6-dimethyl-cyclohexyloxy)-benzonitrile] gave an IC50 (hAR; AR Binding IC50, hAR extract) of 33 nM and an IC50 (androgen receptor; [2]) of over 1000 nM.

Work on `CC1CCC(Oc2ccc(C#N)c(Cl)c2)C1` (stereo not shown) [Example 23, 2-Chloro-4-(3-methyl-cyclopentyloxy)-benzonitrile] yielded an IC50 (hAR; [3]) of 145 nM and an IC50 (androgen receptor; [2]) of 202 nM.

In the case of `CO[C@H]1CCCC[C@H]1Oc1ccc(C#N)c(Cl)c1` (relative stereo) [Example 36, 2-Chloro-4-(cis-2-methoxy-cyclohexyloxy)-benzonitrile], the IC50 (hAR; AR Binding IC50, hAR extract) is reported as 123 nM and the IC50 (androgen receptor; [2]) is reported as 300 nM.
